This passage reports IC50 results from patent US7320992B2, “Substituted 2,3-dihydro-1h-isoindol-1-one derivatives and methods of use” (Amgen Inc., priority 2003, dated 2008).

In this assay the test system is VEGF-stimulated HUVEC proliferation (Human Umbilical Vein Endothelial cells). The assay can be described thus: HUVEC Proliferation Assay. It counts as cell-based. Particulars: 72 h incubation, CyQuant readout, read-out: inhibited VEGF-stimulated HUVEC proliferation at a level (IC50). Here is the method:
Human Umbilical Vein Endothelial cells are purchased from Clonetics, Inc., as cryopreserved cells harvested from a pool of donors. These cells, at passage 1, are thawed and expanded in EBM-2 complete medium, until passage 2 or 3. The cells are trypsinized, washed in DMEM+10% FBS+antibiotics, and spun at 1000 rpm for 10 min. Prior to centrifugation of the cells, a small amount is collected for a cell count. After centrifugation, the medium is discarded, and the cells are resuspended in the appropriate volume of DMEM+10% FBS+antibiotics to achieve a concentration of 3×10^5 cells/mL. Another cell count is performed to confirm the cell concentration. The cells are diluted to 3×10^4 cells/mL in DMEM+10% FBS+antibiotics, and 100 μL of cells are added to a 96-well plate. The cells are incubated at 37° C. for 22 h.
Prior to the completion of the incubation period, compound dilutions are prepared. Five-point, five-fold serial dilutions are prepared in DMSO, at concentrations 400-fold greater than the final concentrations desired. 2.5 μL of each compound dilution are diluted further in a total of 1 mL DMEM+10% FBS+antibiotics (400× dilution). Medium containing 0.25% DMSO is also prepared for the 0 μM compound sample. At the 22 h timepoint, the medium is removed from the cells, and 100 μL of each compound dilution is added. The cells are incubated at 37° C. for 2-3 h.
During the compound pre-incubation period, the growth factors are diluted to the appropriate concentrations. Solutions of DMEM+10% FBS+antibiotics, containing either VEGF or bFGF at the following concentrations: 50, 10, 2, 0.4, 0.08, and 0 ng/mL are prepared. For the compound-treated cells, solutions of VEGF at 550 ng/mL or bFGF at 220 ng/mL for 50 ng/mL or 20 ng/mL final concentrations, respectively, are prepared since 10 μL of each will be added to the cells (110 μL final volume). At the appropriate time after adding the compounds, the growth factors are added. VEGF is added to one set of plates, while bFGF is added to another set of plates. For the growth factor control curves, the media on wells B4-G6 of plates 1 and 2 are replaced with media containing VEGF or bFGF at the varying concentrations (50-0 ng/mL). The cells are incubated at 37° C. for an additional 72 h.
At the completion of the 72 h incubation period, the medium is removed, and the cells are washed twice with PBS. After the second wash with PBS, the plates are tapped gently to remove excess PBS, and the cells are placed at −70° C. for at least 30 min. The cells are thawed and analyzed using the CyQuant fluorescent dye (Molecular Probes C-7026), following the manufacturer's recommendations. The plates are read on a Victor/Wallac 1420 workstation at 485 nm/530 nm (excitation/emission). Raw data are collected and analyzed using a 4-parameter fit equation in XLFit. IC50 values are then determined.

As to `CC1(C)CNc2cc(N3Cc4cccc(NCc5ccncc5)c4C3=O)ccc21` [Example 17], the IC50 was less than 500 nM.

For the molecule `CC1(C)CNCc2cc(N3Cc4cccc(NCc5ccncc5)c4C3=O)ccc21` [Example 20], the IC50 is less than 500 nM.

Consider `CC1(C)CNCc2cc(N3Cc4cccc(NCc5c[nH]c6ncccc56)c4C3=O)ccc21` [Example 35], for which the IC50 is less than 500 nM.

In the case of `CC1(C)CNCc2cc(N3Cc4cccc(NCc5ccc6ncccc6c5)c4C3=O)ccc21` [Example 64, 2-(4,4-Dimethyl-1,2,3,4-tetrahydro-isoquinolin-7-yl)-7-[(quinolin-6-ylmethyl)-amino]-2,3-dihydro-isoindol-1-one], the IC50 is less than 500 nM.

Turning to `CC(=O)N1CC(C)(C)c2ccc(N3Cc4cccc(NCc5ccncc5)c4C3=O)cc21` [Example 16, 2-(1-acetyl-3,3-dimethyl-2,3-dihydro-1H-indol-6-yl)-7-[(pyridin-4-ylmethyl)-amino]-2,3-dihydro-isoindol-1-one], the IC50 was less than 500 nM.

For the molecule `CC(C)(C)c1ccc(N2Cc3ccnc(NCc4ccnc(N)c4)c3C2=O)cc1` [Example 83, 4-[(2-amino-pyridin-4-ylmethyl)-amino]-2-(4-tert-butyl-phenyl)-1,2-dihydro-pyrrolo[3,4-c]pyridin-3-one], the IC50 is less than 500 nM.

As for `CC(C)(C)c1cc(N2Cc3cccc(NCc4ccncc4)c3C2=O)[nH]n1` [Example 46, 2-(5-tert-butyl-2H-pyrazol-3-yl)-7-[(pyridin-4-ylmethyl)-amino]-2,3-dihydro-isoindol-1-one], the IC50 is less than 500 nM.

Regarding `CC(C)(C)c1ccc(N2Cc3cccc(NCc4ccncc4)c3C2=O)cc1` [Example 1, 2-(4-(1,1-Dimethylethyl)phenyl)-7-((4-pyridinylmethyl)amino)-2,3-dihydro-1H-isoindol-1-one], the IC50 was less than 500 nM.

On to `CC(C)(C)c1ccc(N2Cc3cccc(NCc4c[nH]c5ncccc45)c3C2=O)cc1` [Example 32, 2-(4-tert-butyl-phenyl)-7-[(1H-pyrrolo [2,3-b]pyridin-3-ylmethyl)-amino]-2,3-dihydro-isoindol-1-one], for which the IC50 is less than 500 nM.

With `CC(C)(C)c1ccc(N2Cc3ccnc(NCc4ccncc4)c3C2=O)cc1` [Example 80, 2-(4-tert-butyl-phenyl)-4-[(pyridin-4-ylmethyl)-amino]-1,2-dihydro-pyrrolo[3,4-c]pyridin-3-one], the IC50 was less than 500 nM.
